Assay [1] deals with T1, FXR ligand binding domain (Homo sapiens, UniProt Q96RI1).
T1 construct: expressed in transfected cells; host or cells: HEK293 cells, transiently transfected with pCMV-BD-FXR-LBD, pFR-Luc and pRL-CMV
T1 sequence (Q96RI1 187-472 isoform Q96RI1-2): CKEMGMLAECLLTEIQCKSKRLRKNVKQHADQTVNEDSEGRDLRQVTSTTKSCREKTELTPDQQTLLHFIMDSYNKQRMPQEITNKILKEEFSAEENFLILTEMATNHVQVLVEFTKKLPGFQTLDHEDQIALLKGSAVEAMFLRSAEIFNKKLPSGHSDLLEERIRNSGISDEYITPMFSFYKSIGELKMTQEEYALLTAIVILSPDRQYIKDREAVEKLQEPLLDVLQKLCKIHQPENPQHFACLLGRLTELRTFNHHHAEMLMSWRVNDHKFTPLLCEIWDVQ
Nature of the assay: Mammalian One Hybrid (M1H) assay, Gal4 promoter driven transactivation in HEK293 cells. The assay is classed as cell-based. Conditions: Gal4-FXR-LBD luciferase reporter, 16 h. In a few lines:
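HEK293 cells were transiently co-transfected with Gal4-DBD fused to the human FXR LBD (aa 187-472, NM_005123), a 5×GAL4-site firefly luciferase reporter and CMV-Renilla control. Compounds were added 2-4 h post-transfection (vehicle ≤0.1%) in charcoal/dextran-stripped FBS medium for 16 h. Firefly and Renilla luciferase were read sequentially, in triplicate.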
For orientation: A reporter such as luciferase makes a cellular process visible.

The target in assay [2] is T2, human FXR alpha ligand binding domain (Homo sapiens, UniProt Q96RI1).
T2 construct: made in house; host or cells: E. coli BL21(DE3), vector pDEST15
T2 sequence (Q96RI1 187-472 isoform Q96RI1-2): T1 sequence (Q96RI1 187-472 isoform Q96RI1-2)
Nature of the assay: FRET activity assay (ligand mediated cofactor peptide interaction, LANCE). The following applies: GST-FXR-LBD / biotinylated SRC-1 peptide (676-700), read-out: F EC50. The class given is biochemical. Put shortly:
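GST-tagged FXR LBD (aa 187–472, E. coli-expressed) at 20–60 ng/well with 200–600 nM biotinylated SRC-1 peptide (676–700), streptavidin-APC and Eu anti-GST in Tris pH 7.5 buffer, 1% DMSO, equilibrated 1 h dark at room temperature. TR-FRET read as 665/615 nm ratio; agonists raise signal above basal.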
(In general: TR-FRET usually uses a lanthanide donor and a delayed reading to cut background.)

What is called EC50 is the concentration that produces a half-maximal response. For `O=C(O)c1ccc2nc([C@]3(O)CC[C@@H](OCc4c(-c5c(C(F)F)cccc5C(F)F)noc4C4CC4)CC3)sc2c1` [Example 11-18, 2-((1s,4s)-4-((3-(2,6-Bis(difluoromethyl)phenyl)-5-cyclopropylisoxazol-4-yl)methoxy)-1-hydroxycyclohexyl)benzo[d]thiazole-6-carboxylic acid], the EC50 in assay [1] is 170 nM; in assay [2], 350 nM.

As for `Cc1cccc(C)c1-c1noc(C2CC2)c1CO[C@H]1CC[C@](O)(c2nc3ccc(C(=O)O)cc3s2)CC1` [Example 11-12, 2-((1s,4s)-4-((5-Cyclopropyl-3-(2,6-dimethylphenyl)isoxazol-4-yl)methoxy)-1-hydroxycyclohexyl)benzo[d]thiazole-6-carboxylic acid], the half-maximal effective concentration (EC50) in assay [1] stood at 430 nM; in assay [2] it was 360 nM.

With `O=C(O)C1(Oc2cc(F)cc([C@]3(O)[C@@H]4CC[C@H]3C[C@H](OCc3c(-c5c(Cl)cccc5Cl)noc3C3CC3)C4)c2)CC1` [Example 14-3, 1-(3-((1R,3s,5S,8r)-3-((5-Cyclopropyl-3-(2,6-dichlorophenyl)isoxazol-4-yl)methoxy)-8-hydroxybicyclo[3.2.1]octan-8-yl)-5-fluorophenoxy)cyclopropanecarboxylic acid], the concentration for a half-maximal effect (EC50) in assay [1] was determined as 520 nM; in assay [2], 41 nM.

In the case of `COCC1(OCc2c(-c3c(Cl)cccc3Cl)noc2C2CC2)C[C@H]2CC[C@@H](C1)[C@]2(O)c1nc2c(F)cc(C(=O)O)cc2s1` (single isomer, unassigned) [Example 11-41], the half-maximal effective concentration (EC50) in assay [1] stood at 320 nM; in assay [2] it was 190 nM.

For `O=C(O)c1ccc2nc(C3(O)CCC(OCc4c(-c5c(Cl)cccc5Cl)noc4C4CC4)C3)sc2c1` (stereo not drawn) [Example 11-57, 2-(3-((5-Cyclopropyl-3-(2,6-dichlorophenyl)isoxazol-4-yl)methoxy)-1-hydroxy-cyclopentyl)benzo[d]thiazole-6-carboxylic acid], the EC50 in assay [1] came to 29 nM; in assay [2], 31 nM.

Turning to `O=C(O)c1ccc2sc([C@]3(O)CC[C@H](OCc4c(-c5c(Cl)cccc5Cl)noc4C4CC4)CC3)nc2c1` [Example 5, 2-((1r,4r)-4-((5-Cyclopropyl-3-(2,6-dichlorophenyl)isoxazol-4-yl)methoxy)-1-hydroxycyclohexyl)benzo[d]thiazole-5-carboxylic acid], the EC50 in assay [1] was found to be 1900 nM; in assay [2], 620 nM.

As to `CC(C)(F)c1onc(-c2c(Cl)cccc2Cl)c1CO[C@@H]1C[C@H]2CC[C@@H](C1)[C@]2(O)c1nc2c(F)cc(C(=O)O)cc2s1` [Example 11-52, 2-((1R,3s,5S,8r)-3-((3-(2,6-Dichlorophenyl)-5-(2-fluoropropan-2-yl)isoxazol-4-yl)methoxy)-8-hydroxybicyclo[3.2.1]octan-8-yl)-4-fluorobenzo[d]thiazole-6-carboxylic acid], the figures for the concentration for a half-maximal effect (EC50) in assay [1] and in assay [2] were 1.9 nM and 4.9 nM, respectively.

Turning to `O=C(O)Cc1ccc(F)c([C@]2(O)CC[C@@H](OCc3c(-c4c(Cl)cccc4Cl)noc3C3CC3)CC2)c1` [Example 11-9, 2-(3-((1s,4s)-4-((5-Cyclopropyl-3-(2,6-dichlorophenyl)isoxazol-4-yl)methoxy)-1-hydroxycyclohexyl)-4-fluorophenyl)acetic acid], the results for the concentration for a half-maximal effect (EC50) in assay [1] and in assay [2] were 120 nM and 47 nM, respectively.

Consider `O=C(O)c1cc(F)c2nc([C@]3(O)CC[C@@H](OCc4c(-c5c(Cl)cccc5Cl)noc4C4CC4)CC3)sc2c1` [Example 11-31, 2-((1s,4s)-4-((5-cyclopropyl-3-(2,6-dichlorophenyl)isoxazol-4-yl)methoxy)-1-hydroxycyclohexyl)-4-fluorobenzo[d]thiazole-6-carboxylic acid], for which the concentration for a half-maximal effect (EC50) turned out to be 130 nM in assay [1] and 50 nM in assay [2].

For `Cc1cccc(C)c1OCc1noc(C2CC2)c1CO[C@@H]1C[C@H]2CC[C@@H](C1)[C@]2(O)c1nc2c(F)cc(C(=O)O)cc2s1` [Example 11-50, 2-((1R,3s,5S,8r)-3-((5-Cyclopropyl-3-((2,6-dimethylphenoxy)methyl)isoxazol-4-yl)methoxy)-8-hydroxybicyclo[3.2.1]octan-8-yl)-4-fluorobenzo[d]thiazole-6-carboxylic acid], the figures for the half-maximal effective concentration (EC50) in assay [1] and in assay [2] were 6.4 nM and 82 nM, respectively.

As for `O=C(O)c1ccc2nc([C@]3(O)CC[C@@H](OCc4c(-c5ccccc5C5CC5)noc4C4CC4)CC3)sc2c1` [Example 11-11, 2-((1s,4s)-4-((5-Cyclopropyl-3-(2-cyclopropylphenyl)isoxazol-4-yl)methoxy)-1-hydroxycyclohexyl)benzo[d]thiazole-6-carboxylic acid], the EC50 in assay [1] turned out to be 1400 nM; in assay [2], 1000 nM.

In the case of `O=C(O)c1cc(F)c2nc([C@]3(O)[C@@H]4CC[C@H]3C[C@H](OCc3c(-c5ccccc5OC(F)F)noc3C3CC3)C4)sc2c1` [Example 11-28, 2-((1R,3s,5S,8r)-3-((5-Cyclopropyl-3-(2-(difluoromethoxy)phenyl)isoxazol-4-yl)methoxy)-8-hydroxybicyclo[3.2.1]octan-8-yl)-4-fluorobenzo[d]thiazole-6-carboxylic acid], the EC50 came to 17 nM in assay [1] and 9.7 nM in assay [2].

Values taken from US9751874B2, “Hydroxy containing FXR (NR1H4) modulating compounds” (Gilead Sciences, Inc., priority 2014, dated 2017).
